Results taken from ChEMBL document CHEMBL4229492, “Design, Synthesis, and Biological Evaluation of Novel 7-[(3 aS,7 aS)-3 a-Aminohexahydropyrano[3,4- c]pyrrol-2(3 H)-yl]-8-methoxyquinolines with Potent Antibacterial Activity against Respiratory Pathogens” (J Med Chem, 2018).
Converted amounts (≈) assume the structure as drawn. The source made the active and inactive calls. The rule behind the calls is not given here.

Key:
Mus musculus [1] = assay: Toxicity in Slc:ddY mouse assessed as induction of mortality at 50 ug/5 uL/mouse administered intracisternally and measured over 30 mins post dose; format: organism-based; conditions: in vivo, other, 0.5 h
Streptococcus pneumoniae [2] = assay: Antibacterial activity against penicillin-susceptible Streptococcus pneumoniae J24 after 18 hrs by two-fold microbroth dilution method; format: functional; conditions: J24, 18 h
hERG (KCNH2) [3] = molecular target: T1, hERG (KCNH2) (Homo sapiens, UniProt Q12809); assay: Inhibition of human ERG expressed in CHOK1 cells at 30 uM; format: cell-based; conditions: CHOK1 cells that express human ERG
T1 sequence (Q12809 whole entry): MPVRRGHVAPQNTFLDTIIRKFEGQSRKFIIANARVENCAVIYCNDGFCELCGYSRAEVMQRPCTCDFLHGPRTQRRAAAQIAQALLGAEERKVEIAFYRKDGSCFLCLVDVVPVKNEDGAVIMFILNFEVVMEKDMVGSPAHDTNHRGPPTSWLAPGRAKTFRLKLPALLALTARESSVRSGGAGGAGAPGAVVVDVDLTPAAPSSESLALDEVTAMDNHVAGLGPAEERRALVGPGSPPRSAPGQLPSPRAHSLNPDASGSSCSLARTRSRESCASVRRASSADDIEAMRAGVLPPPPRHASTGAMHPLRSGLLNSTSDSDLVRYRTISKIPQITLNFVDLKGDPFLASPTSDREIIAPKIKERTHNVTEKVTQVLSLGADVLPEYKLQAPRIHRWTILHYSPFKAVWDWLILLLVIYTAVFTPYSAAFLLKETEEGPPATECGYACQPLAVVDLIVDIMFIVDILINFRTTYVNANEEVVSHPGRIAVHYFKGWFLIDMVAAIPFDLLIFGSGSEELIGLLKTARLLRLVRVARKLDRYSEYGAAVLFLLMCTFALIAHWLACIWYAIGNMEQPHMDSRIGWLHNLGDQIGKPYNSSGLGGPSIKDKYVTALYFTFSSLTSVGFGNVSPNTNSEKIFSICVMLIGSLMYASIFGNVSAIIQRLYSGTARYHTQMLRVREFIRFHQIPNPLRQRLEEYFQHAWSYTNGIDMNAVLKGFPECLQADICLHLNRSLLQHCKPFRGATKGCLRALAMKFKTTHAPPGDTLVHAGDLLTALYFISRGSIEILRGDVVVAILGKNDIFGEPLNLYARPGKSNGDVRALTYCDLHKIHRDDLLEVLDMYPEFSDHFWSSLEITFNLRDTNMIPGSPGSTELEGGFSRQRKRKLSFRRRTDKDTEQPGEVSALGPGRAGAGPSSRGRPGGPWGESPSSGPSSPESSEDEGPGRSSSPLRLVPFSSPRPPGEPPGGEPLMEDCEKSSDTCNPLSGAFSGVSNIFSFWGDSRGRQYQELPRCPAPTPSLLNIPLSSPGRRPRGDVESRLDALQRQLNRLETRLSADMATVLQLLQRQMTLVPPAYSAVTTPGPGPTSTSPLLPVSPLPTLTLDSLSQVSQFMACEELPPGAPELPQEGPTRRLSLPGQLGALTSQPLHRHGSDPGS

Mus musculus [4] = assay: Toxicity in Slc:ddY mouse assessed as induction of convulsion at 5 ug/5 uL/mouse administered intracisternally 30 mins after 400 mg/kg, po BPAA dosing and measured over 30 mins post dose; format: organism-based; conditions: in vivo, 0.5 h
Haemophilus influenzae = assay: Antibacterial activity against Haemophilus influenzae ATCC 49247 after 18 hrs by two-fold microbroth dilution method; format: functional; conditions: ATCC 49247, 18 h
Bacillus spizizenii = assay: Antibacterial activity against Bacillus subtilis ATCC 6633 after 18 hrs by two-fold microbroth dilution method; format: functional; conditions: ATCC 6633, 18 h
Staphylococcus aureus [5] = assay: Antibacterial activity against methicillin-resistant Staphylococcus aureus after 18 hrs by two-fold microbroth dilution method; format: functional
Albumin = Albumin (Homo sapiens, UniProt P02768); assay: Binding affinity to human serum albumin after 60 mins at 37 degC by ultrafiltration-based LC-MS analysis; format: ADME; conditions: read-out: PB (converted)
Chain of Albumin (P02768 whole entry): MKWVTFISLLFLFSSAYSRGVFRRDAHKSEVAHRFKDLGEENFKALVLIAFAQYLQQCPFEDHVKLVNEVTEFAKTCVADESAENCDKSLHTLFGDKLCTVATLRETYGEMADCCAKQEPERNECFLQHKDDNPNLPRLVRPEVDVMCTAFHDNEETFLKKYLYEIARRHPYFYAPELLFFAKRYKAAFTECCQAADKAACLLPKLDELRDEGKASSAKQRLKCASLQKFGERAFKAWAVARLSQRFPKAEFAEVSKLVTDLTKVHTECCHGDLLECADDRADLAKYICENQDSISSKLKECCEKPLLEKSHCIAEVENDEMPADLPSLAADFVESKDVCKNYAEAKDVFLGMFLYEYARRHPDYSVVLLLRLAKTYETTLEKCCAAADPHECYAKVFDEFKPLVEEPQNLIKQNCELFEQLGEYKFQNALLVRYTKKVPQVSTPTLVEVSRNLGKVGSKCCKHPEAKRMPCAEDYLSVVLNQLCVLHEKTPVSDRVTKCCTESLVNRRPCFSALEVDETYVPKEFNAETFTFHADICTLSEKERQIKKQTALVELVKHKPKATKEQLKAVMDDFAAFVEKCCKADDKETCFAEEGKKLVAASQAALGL

Streptococcus pneumoniae [6] = assay: Antibacterial activity against penicillin-susceptible Streptococcus pneumoniae J41 after 18 hrs by two-fold microbroth dilution method; format: functional; conditions: J41, 18 h
Enterococcus faecalis = assay: Antibacterial activity against Enterococcus faecalis ATCC 19433 after 18 hrs by two-fold microbroth dilution method; format: functional; conditions: ATCC 19433, 18 h
Klebsiella pneumoniae = assay: Antibacterial activity against Klebsiella pneumoniae TYPE 1 after 18 hrs by two-fold microbroth dilution method; format: functional; conditions: TYPE 1, 18 h
Moraxella catarrhalis = assay: Antibacterial activity against Moraxella catarrhalis ATCC 25238 after 18 hrs by two-fold microbroth dilution method; format: functional; conditions: ATCC 25238, 18 h
Mus musculus [7] = assay: Toxicity in Slc:ddY mouse assessed as induction of convulsion at 5 ug/5 uL/mouse administered intracisternally and measured over 30 mins post dose; format: organism-based; conditions: in vivo, other, 0.5 h
CYP3A4 = CYP3A4 (Homo sapiens, UniProt P08684); assay: Inhibition of CYP3A4 in human liver microsomes at 10 uM assessed as remaining activity by measuring 1'-hydroxylation of midazolam after 30 mins; format: ADME; conditions: probe midazolam (1'-hydroxylation), read-out: Activity
Chain of CYP3A4 (P08684 whole entry): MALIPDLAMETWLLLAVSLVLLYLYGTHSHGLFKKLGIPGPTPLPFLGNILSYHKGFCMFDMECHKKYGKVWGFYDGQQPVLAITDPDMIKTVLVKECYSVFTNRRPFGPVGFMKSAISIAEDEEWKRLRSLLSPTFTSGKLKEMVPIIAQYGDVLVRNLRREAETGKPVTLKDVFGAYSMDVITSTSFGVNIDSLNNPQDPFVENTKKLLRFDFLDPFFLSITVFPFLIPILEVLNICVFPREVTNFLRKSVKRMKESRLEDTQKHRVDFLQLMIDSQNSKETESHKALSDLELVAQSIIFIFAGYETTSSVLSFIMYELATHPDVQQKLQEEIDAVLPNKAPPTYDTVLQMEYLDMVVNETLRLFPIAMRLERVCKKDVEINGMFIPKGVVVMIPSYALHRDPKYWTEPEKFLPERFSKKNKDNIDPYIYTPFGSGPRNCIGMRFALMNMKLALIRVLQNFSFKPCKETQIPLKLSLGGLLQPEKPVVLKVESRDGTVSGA

[8] = Metabolic stability in human microsomes at 1 uM assessed as compound remaining after 30 mins; format: ADME, Microsome; conditions: read-out: Stability
[9] = Cmax in Crj:CD rat at 5 mg/kg, po; format: ADME, organism-based; design: dose 5 mg/kg, route oral; conditions: in vivo
Escherichia coli [10] = assay: Antibacterial activity against Escherichia coli NIHJ after 18 hrs by two-fold microbroth dilution method; format: functional
[11] = Primary phase half life in cynomolgus monkey serum at 5 mg/kg, iv; format: ADME, organism-based, Macaca fascicularis; conditions: read-out: alphat1/2 (converted)
[12] = Drug recovery in cynomolgus monkey urine at 5 mg/kg, iv after 24 hrs; format: ADME, organism-based, Macaca fascicularis; conditions: read-out: Drug recovery
Staphylococcus aureus [13] = assay: Antibacterial activity against Staphylococcus aureus SMITH after 18 hrs by two-fold microbroth dilution method; format: functional
[14] = AUC (0 to 8 hrs) in Crj:CD rat at 5 mg/kg, po; format: ADME, organism-based; design: time < 8 hr, dose 5 mg/kg, route oral; conditions: in vivo
Mus musculus [15] = assay: Toxicity in Slc:ddY mouse assessed as induction of mortality at 5 ug/5 uL/mouse administered intracisternally and measured over 30 mins post dose; format: organism-based; conditions: in vivo, other, 0.5 h
Mus musculus [16] = assay: Toxicity in Slc:ddY mouse assessed as induction of mortality at 15 ug/5 uL/mouse administered intracisternally 30 mins after 400 mg/kg, po BPAA dosing and measured over 30 mins post dose; format: organism-based; conditions: in vivo, 0.5 h
Staphylococcus aureus [17] = assay: Antibacterial activity against levofloxacin and methicillin-resistant Staphylococcus aureus 870307 after 18 hrs by two-fold microbroth dilution method; format: functional; conditions: Staphylococcus aureus, 870307, 18 h
Streptococcus pneumoniae [18] = assay: Antibacterial activity against penicillin-resistant Streptococcus pneumoniae 033806 after 18 hrs by two-fold microbroth dilution method; format: functional; conditions: Streptococcus pneumoniae, 033806, 18 h
hERG (KCNH2) [19] = molecular target: T1, hERG (KCNH2); assay: Inhibition of human ERG expressed in CHOK1 cells at 100 uM; format: cell-based; conditions: CHOK1 cells that express human ERG
Escherichia coli [20] = assay: Antibacterial activity against quinolone-resistant Escherichia coli DNS5101 after 18 hrs by two-fold microbroth dilution method; format: functional; conditions: DNS5101, 18 h
Mus musculus [21] = assay: Toxicity in Slc:ddY mouse assessed as induction of convulsion at 15 ug/5 uL/mouse administered intracisternally and measured over 30 mins post dose; format: organism-based; conditions: in vivo, other, 0.5 h
Staphylococcus aureus [22] = assay: Antibacterial activity against levofloxacin and methicillin-resistant Staphylococcus aureus 890325-1 after 18 hrs by two-fold microbroth dilution method; format: functional; conditions: 890325-1, 18 h
Mus musculus [23] = assay: Toxicity in Slc:ddY mouse assessed as induction of mortality at 5 ug/5 uL/mouse administered intracisternally 30 mins after 400 mg/kg, po BPAA dosing and measured over 30 mins post dose; format: organism-based; conditions: in vivo, 0.5 h
Streptococcus pyogenes = assay: Antibacterial activity against Streptococcus pyogenes ATCC 12344 after 18 hrs by two-fold microbroth dilution method; format: functional; conditions: ATCC 12344, 18 h
Mus musculus [24] = assay: Toxicity in Slc:ddY mouse assessed as induction of convulsion at 15 ug/5 uL/mouse administered intracisternally 30 mins after 400 mg/kg, po BPAA dosing and measured over 30 mins post dose; format: organism-based; conditions: in vivo, 0.5 h
Mus musculus [25] = assay: Toxicity in Slc:ddY mouse assessed as induction of mortality at 15 ug/5 uL/mouse administered intracisternally and measured over 30 mins post dose; format: organism-based; conditions: in vivo, other, 0.5 h
[26] = AUC (0 to 8 hrs) in cynomolgus monkey serum at 5 mg/kg, iv; format: ADME, organism-based, Macaca fascicularis; design: dose 5 mg/kg, time < 8 hr, route intravenous
Escherichia coli [27] = assay: Antibacterial activity against Escherichia coli 5-037042'98 harboring gyrase A Asp87Gly mutation after 18 hrs by two-fold microbroth dilution method; format: functional; conditions: 5-037042'98, 18 h
Mus musculus [28] = assay: Toxicity in Slc:ddY mouse assessed as induction of mortality at 50 ug/5 uL/mouse administered intracisternally 30 mins after 400 mg/kg, po BPAA dosing and measured over 30 mins post dose; format: organism-based; conditions: in vivo, 0.5 h
Pseudomonas aeruginosa = assay: Antibacterial activity against Pseudomonas aeruginosa PAO1 after 18 hrs by two-fold microbroth dilution method; format: functional; conditions: PAO1, 18 h
[29] = Cmin in cynomolgus monkey serum at 5 mg/kg, iv after 5 mins; format: ADME, organism-based, Macaca fascicularis; conditions: read-out: Cmin
[30] = AUC (0 to 24 hrs) in cynomolgus monkey serum at 5 mg/kg, po; format: ADME, organism-based, Macaca fascicularis; design: time < 24 hr, dose 5 mg/kg, route oral
Streptococcus pneumoniae [31] = assay: In vivo antibacterial activity against quinolone-sensitive and penicillin-resistant Streptococcus pneumoniae 033806 infected in CBA/JNCrj mouse assessed as reduction in bacterial count at 10 to 40 mg/kg, sc administered twice per day starting from 1 day after infection and measured on day after final dose; format: functional, organism-based
Mus musculus [32] = assay: Toxicity in Slc:ddY mouse assessed as induction of convulsion at 50 ug/5 uL/mouse administered intracisternally and measured over 30 mins post dose; format: organism-based; conditions: in vivo, other, 0.5 h
Mus musculus [33] = assay: Toxicity in Slc:ddY mouse assessed as induction of convulsion at 50 ug/5 uL/mouse administered intracisternally 30 mins after 400 mg/kg, po BPAA dosing and measured over 30 mins post dose; format: organism-based; conditions: in vivo, 0.5 h

| Compound | Activity (Mus musculus [1]) | Activity (Mus musculus [4]) | MIC (Bacillus spizizenii) [µg/mL] | MIC50 (Staphylococcus aureus [5]; Staphylococcus aureus, 18 h) [µg/mL] | MIC90 (Staphylococcus aureus [5]; Staphylococcus aureus, 18 h) [µg/mL] | fraction unbound at 1 h (Albumin) | MIC (Streptococcus pneumoniae [6]) [µg/mL] | Activity (Mus musculus [7]) | activity at 0.5 h, 10 µM (CYP3A4) [%] | remaining at 0.5 h, 1 µM [8] [%] | MIC (Staphylococcus aureus [13]) [µg/mL] | Activity (Mus musculus [15]) | Activity (Mus musculus [16]) | MIC (Staphylococcus aureus [17]) [µg/mL] | MIC (Streptococcus pneumoniae [18]) [µg/mL] | MIC (Escherichia coli [20]) [µg/mL] | MIC (Staphylococcus aureus [22]) [µg/mL] | Activity (Mus musculus [23]) | MIC (Streptococcus pyogenes) [µg/mL] | Activity (Mus musculus [28]) | further results |
| --- | --- | --- | --- | --- | --- | --- | --- | --- | --- | --- | --- | --- | --- | --- | --- | --- | --- | --- | --- | --- | --- |
| COc1c(N2C[C@@H]3CCOC[C@@]3(N)C2)c(F)cc2c(=O)c(C(=O)O)cn([C@@H]3C[C@@H]3F)c12 | Non-Toxic | Non-Toxic | 0.006 (≈ 0.0138 µM) | 0.015 (≈ 0.0344 µM) | 0.5 (≈ 1.15 µM) | 1 | 0.05 (≈ 0.115 µM) | Non-Toxic | 97.4 | 100 | 0.006 (≈ 0.0138 µM) | Non-Toxic | Non-Toxic | 0.2 (≈ 0.459 µM) | 0.12 (≈ 0.276 µM) | 1.56 (≈ 3.58 µM) | 0.2 (≈ 0.459 µM) | Non-Toxic | 0.05 (≈ 0.115 µM) | Non-Toxic | MIC (Streptococcus pneumoniae [2]): 0.1 µg/mL (≈ 0.23 µM); inhibition at 30 µM (hERG (KCNH2) [3]): -2.2%; MIC (Haemophilus influenzae): 0.006 µg/mL (≈ 0.0138 µM); MIC (Staphylococcus aureus [5]): 0.008 to 8 µg/mL; MIC (Enterococcus faecalis): 0.2 µg/mL (≈ 0.459 µM); MIC (Klebsiella pneumoniae): 0.05 µg/mL (≈ 0.115 µM); MIC (Moraxella catarrhalis): 0.025 µg/mL (≈ 0.0574 µM); Cmax [9]: 880 ng/mL; MIC (Escherichia coli [10]): 0.006 µg/mL (≈ 0.0138 µM); half-life [11]: 3.5 h; dose excreted at 24 h [12]: 65%; AUC(0-t) at 8 h [14]: 3140 ng·h/mL; inhibition at 100 µM (hERG (KCNH2) [19]): -2.5%; Activity (Mus musculus [21]): Non-Toxic; Activity (Mus musculus [24]): Non-Toxic; Activity (Mus musculus [25]): Non-Toxic; AUC(0-t) at 8 h [26]: 22900 ng·h/mL; MIC (Escherichia coli [27]): 0.05 µg/mL (≈ 0.115 µM); MIC (Pseudomonas aeruginosa): 0.78 µg/mL (≈ 1.79 µM); concentration at 5 min [29]: 7000 ng/mL |
| COc1c(N2CC3(CC3)[C@](C)(N)C2)c(F)cc2c(=O)c(C(=O)O)cn([C@@H]3C[C@@H]3F)c12 | Toxic | Non-Toxic | 0.012 (≈ 0.0286 µM) | 0.03 (≈ 0.0715 µM) | 1 (≈ 2.38 µM) | 0.946 | 0.1 (≈ 0.238 µM) | Non-Toxic | 78.4 | 97 | 0.012 (≈ 0.0286 µM) | Non-Toxic | Non-Toxic | 0.78 (≈ 1.86 µM) | 0.12 (≈ 0.286 µM) | 6.25 (≈ 14.9 µM) | 0.78 (≈ 1.86 µM) | Non-Toxic | 0.2 (≈ 0.477 µM) | Non-Toxic | AUC(0-t) at 24 h [30]: 16900 ng·h/mL; MIC (Staphylococcus aureus [5]; Staphylococcus aureus, 18 h, read-out: MIC): 0.015 to 4 µg/mL (≈ 0.0358 to 9.54 µM); Activity (Streptococcus pneumoniae [31]): Active; Activity (Mus musculus [25]): Non-Toxic; AUC(0-t) at 8 h [26]: 23800 ng·h/mL; MIC (Escherichia coli [27]): 0.05 µg/mL (≈ 0.119 µM); Activity (Mus musculus [32]): Toxic |
| O=C(O)c1cn(C2CC2)c2cc(N3CCNCC3)c(F)cc2c1=O [CIPROFLOXACIN] | – | Toxic | – | – | – | – | – | Non-Toxic | – | – | – | Non-Toxic | Toxic | – | – | – | – | Toxic | – | Toxic | Activity (Mus musculus [33]): Toxic; Activity (Mus musculus [24]): Toxic |
